Measurements from patent US20250289786A1, “CHLORINATED MONOCARBONYL CURCUMIN COMPOUNDS, PREPARATION METHOD, AND APPLICATION” (Southwest Medical University, priority 2024, published 2025).

Key:
[1] = ABTS free radical capture ability; format: biochemical; conditions: 20 min reaction in the dark
Protocol: 66.2 mg of K2S2O8 was weighed and placed in a 100 mL volumetric flask, pure water was added to the scale line to prepare a 2.45 mmol/L K2S2O8 solution. 192 mg of ABTS was accurately weighed and placed in a 25 mL volumetric flask, and the newly prepared K2S2O8 solution was added for dissolving and constant volume dilution, after standing in the dark for 20 h, the ABTS mother liquor was obtained. Before use, to make the measured value more accurate, the ABTS mother liquor needs to be diluted with a PBS solution of pH7.4 until the absorbance range of the ABTS working solution at 734 nm is 0.70±0.02.
Drug concentration screening: To avoid the complete removal of free radicals by excessive drug concentration and the inability to compare the ability to capture ABTS free radicals, a preliminary screening of drug concentration is required before the formal test. A gradient concentration of compound solution was prepared, and a gradient concentration of Vit C solution was prepared as a positive control. A total of 450 μL of ABTS working solution was accurately absorbed into a 1.5 mL EP tube, and 150 μL of the gradient solution of each group of drugs was added, after 20 min of reaction in the dark, 150 μL of the reaction solution was taken and placed in a 96-well plate, the absorbance was measured by a microplate reader. Three duplicate wells were set for each concentration, and the drug concentration with absorbance between 0.2-0.7 was selected for subsequent determination.
Determination operation: After the drug concentration screening was completed, 7 concentration gradient groups were set within this concentration range. A total of 450 μL of ABTS working solution was accurately absorbed into a 1.5 mL EP tube, and 150 μL of the gradient solution of each group of drugs was added. After 20 min of reaction in the dark, 150 μL of the reaction solution was taken and placed in a 96-well plate, the absorbance was measured by a microplate reader. Three duplicate wells were set for each concentration, the positive control group was a gradient solution of Vit C, and the blank control group was an equal volume of anhydrous ethanol.

PC12 cells [2] = assay: Inhibition of H2O2-induced oxidative damage in PC12 cells; format: cell-based, rat; conditions: for effect on survival of H2O2-damaged PC12 cells: drug concentration below 30 μM, 24 h, in words
Protocol: After 24 hours of incubation in the incubator, the relative proliferation rates of the cells were calculated according to the method under Section 2.1.

[3] = Solubility detection of CAK01-CAK07; format: physicochemical
From the text: The chlorinated monocarbonyl curcumin compounds CAK01-CAK07 prepared under the conditions of Example 1 were taken for nuclear magnetic resonance, mass spectrometry, solubility, and melting point detection.

PC12 cells [4] = assay: Inhibition of corticosterone (CORT)-induced PC12 cell damage; format: cell-based, rat; conditions: 3.75-60 μM drug with 514.6 μM CORT, 24 h, in words
PC12 cells [5] = assay: MTT toxicity (safety evaluation) on PC12 nerve cells; format: cell-based; conditions: for cytotoxicity to PC12 cells: 3.75-60 μM, 24 h and 48 h, in words
Protocol: The toxicity of each drug to PC12 cells was determined by MTT assay. The principle of the MTT colorimetric method: there is succinate dehydrogenase in the mitochondria of living cells, which can make exogenous MTT become blue-purple crystal formazan insoluble in water, this phenomenon cannot be observed in dead cells. The blue-purple crystal formazan can be dissolved by DMSO, and the absorbance value is measured by a microplate reader at a wavelength of 490 nm, which in turn reflects the number of living cells. […] The operation method is as follows:
The cells were resuscitated with DMEM high glucose medium containing 10% fetal bovine serum and cultured in a 5% CO2 cell incubator at 37° C., when the cells grew to the logarithmic growth phase, they were inoculated into a 96-well plate and cultured for 24 hours, each well was added with 100 μL of each compound solution at the corresponding gradient concentration (60, 30, 15, 7.5, 3.75 μM), after incubation in the incubator for 24 h or 48 h, 20 μL of MTT was added to continue incubation for 4 h, the supernatant was discarded and 150 μL of DMSO was added to dissolve the blue-purple crystals, after shaking for 10 min, the cell viability was detected by a microplate reader, and classified according to the cytotoxicity standard. The relevant calculation formula is as follows: […]

Row | SMILES | IC50 values of ABTS captured [1] [µg/mL] | effect on survival of H2O2-damaged PC12 cells (PC12 cells [2]) | solubility [3] [mg/100 g] | effect on viability of CORT-damaged PC12 cells (PC12 cells [4]) | cytotoxicity to PC12 cells (PC12 cells [5]) | Rank (cytotoxicity standard) 24 h (PC12 cells [5]; PC12, 3.75 μM) | Relative growth rate (%) 24 h (PC12 cells [5]; PC12, 3.75 μM) [%] | Rank (cytotoxicity standard) 48 h (PC12 cells [5]; PC12, 3.75 μM) | Relative growth rate (%) 48 h (PC12 cells [5]; PC12, 3.75 μM) [%] | Rank (cytotoxicity standard) 24 h (PC12 cells [5]; PC12, 7.5 μM) | Relative growth rate (%) 24 h (PC12 cells [5]; PC12, 7.5 μM) [%] | Rank (cytotoxicity standard) 48 h (PC12 cells [5]; PC12, 7.5 μM) | Relative growth rate (%) 48 h (PC12 cells [5]; PC12, 7.5 μM) [%] | Rank (cytotoxicity standard) 24 h (PC12 cells [5]; PC12, 15 μM) | Relative growth rate (%) 24 h (PC12 cells [5]; PC12, 15 μM) [%] | Rank (cytotoxicity standard) 48 h (PC12 cells [5]; PC12, 15 μM) | Relative growth rate (%) 48 h (PC12 cells [5]; PC12, 15 μM) [%] | Rank (cytotoxicity standard) 24 h (PC12 cells [5]; PC12, 30 μM) | Relative growth rate (%) 24 h (PC12 cells [5]; PC12, 30 μM) [%] | Rank (cytotoxicity standard) 48 h (PC12 cells [5]; PC12, 30 μM) | other results
1 | CN1C/C(=C\c2cc(Cl)c(O)c(Cl)c2)C(=O)/C(=C/c2cc(Cl)c(O)c(Cl)c2)C1 [CAK02, 3,5-bis ((E)-3,5-dichloro-4-hydroxybenzylidene)-1-methylpiperidin-4-one] | 223.7 | increased the survival rate of cells in a concentration-dependent manner | 0.09 | did not show the potential to restore cell viability | no significant cytotoxicity | 0 | 102.93 ± 1.13 | 1 | 98.35 ± 1.84 | 1 | 99.40 ± 4.11 | 0 | 100.22 ± 3.73 | 1 | 95.08 ± 10.06 | 1 | 95.22 ± 1.86 | 1 | 99.48 ± 1.91 | 1 | Relative growth rate (%) 48 h (PC12 cells [5]; PC12, 30 μM): 97.59 ± 8.36%; Rank (cytotoxicity standard) 24 h (PC12 cells [5]; PC12, 60 μM): 1; Relative growth rate (%) 24 h (PC12 cells [5]; PC12, 60 μM): 88.18 ± 0.93%; Rank (cytotoxicity standard) 48 h (PC12 cells [5]; PC12, 60 μM): 1; Relative growth rate (%) 48 h (PC12 cells [5]; PC12, 60 μM): 98.48 ± 2.00%
2 | CC(C)N1C/C(=C\c2cc(Cl)c(O)c(Cl)c2)C(=O)/C(=C/c2cc(Cl)c(O)c(Cl)c2)C1 [CAK04, 3,5-bis ((E)-3,5-dichloro-4-hydroxybenzylidene)-1-isopropylpiperidin-4-one] | 57.78 | increased the survival rate of cells in a concentration-dependent manner | 0.04 | did not show the potential to restore cell viability | no significant cytotoxicity | 1 | 98.54 ± 5.42 | 0 | 100.97 ± 3.25 | 1 | 99.95 ± 5.76 | 0 | 100.45 ± 2.96 | 1 | 99.06 ± 5.73 | 1 | 99.75 ± 1.57 | 1 | 99.66 ± 2.34 | 1 | relative proliferation rate of cells (PC12 cells [2]; 30 μM drug with 585.8 μM H2O2, 24 h): 52.12±0.88%; Relative growth rate (%) 48 h (PC12 cells [5]; PC12, 30 μM): 98.02 ± 3.00%; Rank (cytotoxicity standard) 24 h (PC12 cells [5]; PC12, 60 μM): 0; Relative growth rate (%) 24 h (PC12 cells [5]; PC12, 60 μM): 101.64 ± 3.95%; Rank (cytotoxicity standard) 48 h (PC12 cells [5]; PC12, 60 μM): 0; Relative growth rate (%) 48 h (PC12 cells [5]; PC12, 60 μM): 100.17 ± 2.92%
3 | O=C1O[C@H]([C@@H](O)CO)C(O)=C1O [Vit C, ascorbic acid, reference compound] | 54.54 | – | – | – | – | – | – | – | – | – | – | – | – | – | – | – | – | – | – | – | –
